Results on four molecules are retold here after patent US20250032590A1, “PARATHYROID HORMONE COMPOUNDS IN THE TREATMENT OF HYPOPARATHYROIDISM” (AMOLYT PHARMA, priority 2023, published 2025).

Read-outs that look alike come from different tables or passages of the source.

Series [1] has as its system patients with HP. Particulars: cited from earlier work; for urinary calcium excretion: clinical studies; for control of calcium levels: patients with HP.
Another series relates to PTX mice. Nature of the series: Serum calcium after single dosing in HP PTX mouse model (Example 1). It counts as in vivo. Conditions: PTX mice, single dosing; AZP-3601 20, 40 or 80 μg/kg; PTH (1-34) 200 μg/kg. The source says: In FIG. 1, the black line indicates the impact of PTX in mice, resulting in serum calcium levels well below normal levels.
In series [2] the test system is TPTX rats. The experiment in a line: Distal femur BMD by qCT in TPTX rats after 14-day treatment at doses that normalize serum calcium (Example 6). It counts as in vivo, rat. As for the experimental part: To directly compare the effect of daily subcutaneous injection of AZP-3601 to daily subcutaneous injection and continuous infusion of PTH(1-34), dose levels for each regimen that normalized serum calcium levels in TPTX rats were utilized. These doses corresponded to 50 nmoles/kg/day (205 μg/kg/day) for PTH(1-34) injected daily, 3 nmoles/kg/day (12.3 μg/kg/day) for PTH(1-34) continuously infused, and 1 nmole/kg/day (4.2 μg/kg/day) for AZP-3601 injected daily. After 14 days of treatment, femurs were collected and examined for bone mineral density (BMD) by quantitative computed tomography.

The test system of series [3] is normal cynomolgus monkeys. Nature of the series: Blood calcium after single injection in normal cynomolgus monkeys (Example 5). Format: in vivo, cynomolgus monkey. Particulars: single dose 10 nmole/kg (AZP-3601 42.7 μg/kg, PTH (1-84) 95 μg/kg, PTH (1-34) 42 μg/kg), AZP-3601 also 10.7 μg/kg (2.5 nmole/kg). As for the experimental part:
To further examine how the potent and sustained biological activity induced by AZP-3601 could translate into potential clinical benefit for […] patients, its activity was examined in normal cynomolgus monkeys, a species much closer to humans and the most relevant for first in human dose-selection. Single injections of AZP-3601 were administered to normal cynomolgus monkeys. […] The dissociation between pharmacokinetic profile and pharmacodynamic effect is due to the short circulating half-life of AZP-3601 as opposed to the prolonged signaling caused by AZP-3601's potent interaction with the R^0 conformation of the PTH1 receptor.
In a second study as illustrated in panel B of FIG. 5, monkeys were injected with a single dose of either natural PTH (1-84) at 95 μg/kg, natural PTH (1-34) at 42 μg/kg or AZP-3601 at 42.7 μg/kg, which were equal doses of 10 nmole/kg, adjusted for the molecular weight of the individual compounds. In addition, a lower dose of 10.7 μg AZP-3601/kg (2.5 nmole/kg) was also tested.

In a further series the test system is hypoparathyroid mice. Conditions: single sc, AZP-3601 10 to 20 nmol/kg, PTH(1-34) at a higher dose; cited from earlier work.
Series [4] concerns patients with HP. Particulars: cited from earlier work.
Series [5] has as its system TPTX rats. Particulars: rat, in vivo; cited from earlier work.
In series [6] the test system is TPTX rats. The experiment in a line: Serum calcium and phosphate, 28-day daily sc dosing in HP TPTX rat model (Example 2). Particulars: once daily sc for 28 days. It counts as in vivo. The procedure: Thyroid-parathyroidectomized, or TPTX, rats were treated with daily subcutaneous injection of AZP-3601 at doses ranging from 3.8 μg/kg/day to 30.7 μg/kg/day. Treatment was continued for 28 days. […] The increase in calcium accumulated over time (over the first 15 to 21 days), but became more constant thereafter, indicating the development of a steady-state effect (FIG. 2). Due to the cumulative effect, lower doses of AZP-3601 were required to eventually increase blood calcium levels into the normal range as compared to the dose required with a single injection.

Series [7] has as its system TPTX rats. The experiment in a line: BMD (DXA) and bone structure (micro-CT) in TPTX rats after repeated daily dosing (Example 7). It counts as in vivo, rat. Particulars: once daily sc, AZP-3601 3.8 to 30.7 μg/kg/day, versus vehicle. The procedure:
To examine the effect of repeated dosing with AZP-3601, TPTX rats were treated with daily subcutaneous injections of either vehicle or AZP-3601 with doses ranging from 3.8 to 30.7 μg/kg/day (0.9-7.2 nmole/kg/day). As additional controls, a separate group of TPTX rats received daily injections of natural PTH (1-84), and a group of normal (with intact thyroid and parathyroid glands, or sham) rats were injected with vehicle. […] Both whole femurs and lumbar spine were analyzed using a technique called dual-energy x-ray absorptionametry, or DXA, which measures BMD.

On to “Natpara™: recombinant natural human PTH ((rh)PTH(1-84)), approved adjunct to calcium and vitamin D in HP”, for which, in the series on patients with HP [1], the urinary calcium excretion result is recorded as “failed to demonstrate reduction of urinary calcium excretion” and the “control of calcium levels” value is “does not control calcium levels for the entire day”. For the same molecule, in the series on patients with HP [1] (listed as (rh)PTH(1-84)), the urinary calcium excretion result is on record as “elevated urinary calcium excretion in many subjects” and the “control of calcium levels” value is reported as “lack of 24-hour control of serum calcium”. Besides, in the series on patients with HP [1] (human, in vivo), the adverse effects result is “adverse effects such as hyper/hypocalcemia and vasoactive events”; the half-life result is “short half-life”.

“PTH(1-34) (SVSEIQLMHNLGKHLNSMERVEWLRKKLQDVHNF) [natural PTH (1-34)]”: the “effect on serum calcium” value in the series on PTX mice is recorded as “transient elevation in serum calcium”. In addition, in the series on TPTX rats [2] (14 days, 3 nmoles/kg/day continuously infused), the “femur BMD by quantitative computed tomography, continuous infusion” value was “significant decrease in BMD”. Also, the “femur BMD by quantitative computed tomography, daily injection” value in the series with TPTX rats [2] (14 days, PTH(1-34) 50 nmoles/kg/day, AZP-3601 1 nmole/kg/day) is “significant increase in BMD”. In the series with TPTX rats [2] (continuously infused), the “dose that normalized serum calcium levels, continuous infusion” value was determined as 3 nmol/kg/day. For the same molecule, the “dose that normalized serum calcium levels, daily subcutaneous injection” value with TPTX rats [2] (injected daily) came to 50 nmol/kg/day. The “effect on blood calcium, second study” value in series [3] is recorded as “only modestly increased blood calcium”. In the series with hypoparathyroid mice, the “duration of decreased serum inorganic phosphorus” value was < 4 h and the “duration of increased serum calcium” value was < 8 h.

“TransCon™PTH: sustained-release, injectable prodrug formulation of native PTH (1-34), Ascendis Pharma A/S”: the hypercalciuria after treatment entry with patients with HP [4] (Phase 3 trial, 6 months of treatment) is recorded as “a number of patients are still hypercalciuric”. Moreover, in the series on patients with HP [4] (human, in vivo), the “mean T-scores” value is on record as “decrease in mean T-scores” and the serum calcium levels result is reported as “provides stable serum calcium levels”. For the same molecule, the “mean 24-hour urine calcium levels” value with patients with HP [4] (patients with HP) was “decrease mean 24-hour urine calcium levels”. The pharmacokinetic profile entry in the series with TPTX rats [5] is reported as “continuous, non-pulsatile, infusion-like pharmacokinetic profile”.

B1: PTH (1-84) (protein, UniProt P01270 32-115, looked up)
Parathyroid hormone: SVSEIQLMHNLGKHLNSMERVEWLRKKLQDVHNFVALGAPLAPRDAGSQRPRKKEDNVLVESHEKSLGEADKADVNVLTKAKSQ
modifications: Parathyroid hormone
notes: natural PTH (1-84), comparator in rats and monkeys
On to B1, for which the “effect on blood calcium, second study” value in [3] is “only modestly increased blood calcium”. Also, in the series on TPTX rats [6], the “effect on blood phosphate levels” value is “only marginal reductions in blood phosphate levels”. Further, in the series on TPTX rats [6] (AZP-3601 3.8 to 30.7 μg/kg/day), the “effect on serum/blood calcium levels” value is listed as “no persistent increase in blood calcium levels”. Besides, the “BMD of whole femur and lumbar spine by DXA” value in the series on TPTX rats [7] is on record as “statistically significant increase in BMD”.
